One compound from publication PMC6737077, “DFMD: Fast and Effective DelPhiForce Steered Molecular Dynamics Approach to Model Ligand Approach Toward a Receptor: Application to Spermine Synthase Enzyme” (Frontiers in Molecular Biosciences, 2019) can be followed below.

Substitutions are numbered along the chain they refer to.

Common to all, as to experiment: intrinsic protein fluorescence titration (ex […] nm, em […]-345 nm)
Type in all cases: binding

Experiment [1] concerns the target T1, human spermine synthase (SpmSyn) (Homo sapiens, UniProt P52788, G56S).
T1 construct: gene SMS; wild-type human SpmSyn expression construct of Wu et al. 2008; expressed in E. coli Rosetta 2, purified; homo-dimer
T1 sequence (P52788 2-366 G56S): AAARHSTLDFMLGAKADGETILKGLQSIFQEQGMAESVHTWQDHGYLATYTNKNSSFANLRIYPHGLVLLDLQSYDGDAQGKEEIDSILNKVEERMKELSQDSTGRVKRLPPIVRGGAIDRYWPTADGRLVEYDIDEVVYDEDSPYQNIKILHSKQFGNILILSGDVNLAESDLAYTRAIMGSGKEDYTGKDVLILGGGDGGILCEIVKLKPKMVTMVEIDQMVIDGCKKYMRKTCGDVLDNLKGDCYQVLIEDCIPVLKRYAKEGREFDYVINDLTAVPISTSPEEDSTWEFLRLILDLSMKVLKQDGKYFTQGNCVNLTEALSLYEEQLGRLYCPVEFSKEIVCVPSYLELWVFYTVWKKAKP

Experiment [2] deals with T2, human spermine synthase (SpmSyn) (Homo sapiens, UniProt P52788).
T2 construct: gene SMS; wild-type human SpmSyn expression construct of Wu et al. 2008; expressed in E. coli Rosetta 2, purified; homo-dimer
T2 sequence (P52788 2-366): T1 sequence (P52788 2-366 G56S) with S55G

The target of experiment [3] is T3, human spermine synthase (SpmSyn) (Homo sapiens, UniProt P52788, D201A).
T3 construct: gene SMS; wild-type human SpmSyn expression construct of Wu et al. 2008; expressed in E. coli Rosetta 2, purified; homo-dimer
T3 sequence (P52788 2-366 D201A): T1 sequence (P52788 2-366 G56S) with S55G, D200A

For the compound `C[S+](CC[C@H](N)C(=O)O)C[C@H]1O[C@@H](n2cnc3c(N)ncnc32)[C@H](O)[C@@H]1O` (stereo partly drawn) [AdoMet], the equilibrium dissociation constant (Kd) (as a rule, the free concentration of one partner at which half of the binding sites on the other are occupied at equilibrium, for simple one-to-one binding) in experiment [1] was 410 ± 57 µM; in experiment [2] it was 272 ± 24 µM; in experiment [3], 1.02 ± 0.069 mM.
